Source: PMC8536644, “Enigmatic mechanism of the N-vinylpyrrolidone hepatocarcinogenicity in the rat” (Archives of Toxicology, 2021)
Where “and” joins values, the source holds several entries; their conditions need not be identical. Identical values can stand only once.

Legend:
rat lung cells = assay: Comet assay, conventional (no FPG), lung; settings: for Hedgehogs/100 cells (mean ± SD) / TI (%) (mean ± SD) / TI (%), mean of medians from 2 slides: lung, no FPG, 5 days; for TI (%), mean of medians from 2 slides: individual animals
Method: Animals were anesthetized by 3.5% isoflurane (approximately 3 min, evaporator Dräger Vapor 19.3) and then killed by cervical dislocation. The liver was removed and its left lateral lobe used for the Comet assay. The remainder of the liver was washed in saline and then in two aliquots shock frozen in liquid nitrogen and stored at − 80 °C for later examinations. Subsequently the lung was removed from the dead animal. Its left lobe was used for the Comet assay and the remainder treated as described above for the liver. Thereafter the femora were removed for the preparation of the bone marrow.
The Comet assay was performed under alkaline conditions according to the principles described by Singh et al. ([1988]) and Tice et al. ([2000]).
Liver and lung cells were obtained essentially as described by Hartmann et al. ([2004]) and by the Japanese Center for the Validation of Alternative Methods (JaCVAM [2009]). Single cells were obtained within 1 h after killing of the animals in order to minimize DNA damage during the preparation.
The organ parts (see above) were washed in mincing buffer (50 mM EDTA in HBSS [without Ca^2+ and Mg^2+] pH 7.5: DMSO 9:1 (v/v), the latter added shortly before use, stored at 4 °C), cut into 1 to 2-mm pieces in ice-cold mincing buffer and transferred to a cell sieve with 70-µm pores. The viability of the cell suspension was evaluated by the Trypan Blue Assay (Strober [2001]).
100 µL of the obtained cell suspension was mixed at 37 °C with 900 µL Low Melting Agarose (LMA) (0.7% agarose in phosphate-buffered saline [PBS] [Biochrom, Berlin, Germany] without Ca^2+ and Mg^2+). 100 µL of this mixture was transferred to a slide, which had been coated with Normal Melting Agarose (NMA) (0.6% agarose in PBS without Ca^2+ and Mg^2+). The slides were protected with a cover slip and the agarose was hardened at approximately 4 °C. The cover slips were then removed and the slides put over night at 4 °C into lysis buffer (2.5 M NaCl, 125 mM NaOH, 127 mM EDTA, 10 mM Tris/NaOH, pH 10; 1% Triton X-100 and 10% DMSO (v/v), the latter two added before use) in order to lyse the cell membrane, nuclear membrane and remove the histone.
The then following procedures were performed in a shaded room to minimize UV-mediated DNA damage during the procedures.
Remaining lysis buffer or FPG buffer was removed by immersing/washing the slides in PBS (without Ca^2+ and Mg^2+).
The slides were then placed into the electrophoresis chamber, which was cooled and protected from light. Slides were covered with electrophoresis buffer (0.3 M NaOH, 1 mM EDTA, pH > 13) carefully avoiding air bubbles. The DNA was allowed to unwind (20 min). Thereafter the electrophoresis was started (25 V, 300 mA, […], 30 min). The slides were then washed (2 times 5 min) in neutralization buffer (0.4 M Tris/HCl, pH 7.5), dehydrated and fixed in 100% ethanol (1 min), dried at room temperature overnight and stored at room temperature protected from dust.
Quantitative evaluation of the Comet assays was performed by fluorescence microscopy after DNA staining with ethidium bromide.

[1] = system: polychromatic erythrocytes of rat bone marrow; assay: Micronucleus test in rat bone marrow (OECD 474); settings: for MN/ 1000 PCE Mean ± SD / MN/ 1000 PCE Range / PCE/1000 Erythrozyten Mean ± SD / PCE/NCE quotient (%): 5 days
Method: 13-mm filter disks with a pore size of 8 µm were placed on the bottom of 5-mL plastic syringes. Approximately 500 mg of a mixture consisting of equal parts microcrystalline cellulose (Sigmacell®, Typ 50) and alpha-cellulose fibers was added up to the 2-mL mark.
Bone marrow preparation was performed according to published methods (Romagna and Staniforth [1989]; Salamone et al. [1980]). The soft tissue was removed from the femora and the epiphyses were cut off. The bone marrow was rinsed off the diaphyses with approximately 3 mL 37 °C-warm fetal calf serum (FCS) (Biochrom, Berlin, Germany) per femur, placed on the above-described cellulose column and eluted with 3 mL of Hank's Balanced Salt Solution (HBSS) (Biochrom, Berlin, Germany) (with Ca^2+ und Mg^2+). The eluate was centrifuged at 300 g for 5 min and the pellet was suspended in […] FCS. From this suspension three portions per femur were individually placed on slides, air-dried and then stained for 4 min in May-Grunwald solution 1 (Merck, Darmstadt, Germany), followed by 4 min in May–Grunwald solution 2 (May-Grunwald solution 1 diluted 1:1 with aqua bidest.), rinsed in aqua bidest and then stained with Giemsa solution (7.5% dilution derived from Giemsa obtained from Merck, Darmstadt, Germany) for 15 min. Subsequently, the slides were washed twice with aqua bidest, then dried, cleared in xylene and covered with Corbit-Balsam (I. Hecht, Kiel-Hasse, Germany).
2000 polychromatic erythrocytes (PCE) per animal (1000 per slide) were evaluated at 1000-fold magnification under immersion oil for the presence/absence of large and small micronuclei as well as the proportion of PCE among the total erythrocytes. Statistical significance of differences between treated versus untreated groups was evaluated by the one-sided Wilcoxon test (using the program MUKERN). The result is regarded as positive when the following criteria are fulfilled: 1.
2000 PCEs were analyzed for micronuclei per animal.

## C=CN1CCCC1=O [NVP, N-vinylpyrrolidone]
Rat lung cells; NVP-treated lung cells, with or without FPG
  Hedgehogs: 1–7%
Rat lung cells; female, 5 ppm inhalation
  Hedgehogs/100 cells (mean ± SD): 2 ± 1 /100 cells
  TI (%) (mean ± SD): 1.2 ± 0.34%
  TI (%), mean of medians from 2 slides: 0.7% and 1.2% and 1.5% and 1.6% and 1.3%
Rat lung cells; female, 10 ppm inhalation
  Hedgehogs/100 cells (mean ± SD): 2 ± 2 /100 cells
  TI (%), mean of medians from 2 slides: 0.4% and 0.9% and 0.5% and 0.6%
Rat lung cells; female, 20 ppm inhalation
  Hedgehogs/100 cells (mean ± SD): 2 ± 3 /100 cells
  TI (%) (mean ± SD): 1.0 ± 0.32%
  TI (%), mean of medians from 2 slides: 0.7% and 0.9% and 1.2% and 1.0% and 1.6%
Rat lung cells; male, 5 ppm inhalation
  Hedgehogs/100 cells (mean ± SD): 4 ± 3 /100 cells
  TI (%), mean of medians from 2 slides: 1.8% and 0.6% and 0.7% and 0.8% and 1.9%
Rat lung cells; male, 10 ppm inhalation
  Hedgehogs/100 cells (mean ± SD): 7 ± 5 /100 cells
  TI (%) (mean ± SD): 1.8 ± 1.94%
  TI (%), mean of medians from 2 slides: 5.7% and 1.3% and 1.2% and 0.7% and 1.0% and 1.1%
Rat lung cells; male, 20 ppm inhalation
  Hedgehogs/100 cells (mean ± SD): 3 ± 1 /100 cells
  TI (%) (mean ± SD): 0.6 ± 0.28%
  TI (%), mean of medians from 2 slides: 0.4% and 0.9% and 0.6% and 0.3%
[1]; 5, 10, 20 ppm, male and female rats
  Mean number of micronuclei in PCE, range over groups: 1.4 to 2.9 ‰
[1]; 5 ppm inhalation, female
  MN/ 1000 PCE Mean ± SD: 1.4 ± 0.7 MN/ 1000 PCE
  MN/ 1000 PCE Range: 0.5–2.5 MN/ 1000 PCE
  PCE/1000 Erythrozyten Mean ± SD: 629 ± 18 PCE/1000 Erythrozyten
  PCE/NCE quotient (%): 99%
[1]; 5 ppm inhalation, male
  MN/ 1000 PCE Mean ± SD: 2.6 ± 0.9 MN/ 1000 PCE
  MN/ 1000 PCE Range: 1.5–4.0 MN/ 1000 PCE
  PCE/1000 Erythrozyten Mean ± SD: 609 ± 40 PCE/1000 Erythrozyten
  PCE/NCE quotient (%): 100%
[1]; 5 ppm, 10 ppm or 20 ppm
  Increase in micronuclei in the PCE: no significant increase
[1]; 10 ppm inhalation, female
  MN/ 1000 PCE Mean ± SD: 1.7 ± 1.0 MN/ 1000 PCE
  MN/ 1000 PCE Range: 0.5–3.0 MN/ 1000 PCE
  PCE/1000 Erythrozyten Mean ± SD: 612 ± 44 PCE/1000 Erythrozyten
  PCE/NCE quotient (%): 96%
[1]; 10 ppm inhalation, male
  MN/ 1000 PCE Mean ± SD: 2.9 ± 1.9 MN/ 1000 PCE
  MN/ 1000 PCE Range: 1.5–6.5 MN/ 1000 PCE
  PCE/1000 Erythrozyten Mean ± SD: 622 ± 33 PCE/1000 Erythrozyten
  PCE/NCE quotient (%): 102%
[1]; 20 ppm inhalation, female
  MN/ 1000 PCE Mean ± SD: 2.3 ± 0.8 MN/ 1000 PCE
  MN/ 1000 PCE Range: 1.0–3.0 MN/ 1000 PCE
